Reference: patent US9150510B2, “Amino acid derivative” (NIPPON ZOKI PHARMACEUTICAL CO., LTD., priority 2008, dated 2015)

Assays:
Assay type in all cases: in vivo
[1] = Test of blood kinetics in the rats; conditions: rat, plasma, 2 mg/kg, fasted Wistar male rats, oral single dose of mixed solution of five compounds, each compound 2 mg/5 mL/kg, n=5, LC-MS; for AUC(0-inf): read-out: AUC0-∞ (area under the curve for concentration in blood, time 0 to infinite hours); for Cmax: read-out: Cmax (maximum concentration in plasma)
Procedure: Ten milligrams of a compound of the present invention was properly converted to a sodium salt with the same amount of sodium hydroxide, where necessary, and each was dissolved in 5 mL of water. Five compounds each among these aqueous solutions of the compounds of the present inventions were mixed, to prepare a mixed solution containing 0.4 mg/mL each of each compound. Six-week old Wistar SPF male rats that were fasted were orally administered with the mixed solution in a single dose using a gavage tube (each compound 2 mg/5 mL/kg, n=5). At time points of 0.25, 0.5, 1, 2, 4, and 8 hours after the administration, about 150 μL of blood was collected using a heparin-added capillary tube from veins of rat tails. The capillary tubes were centrifuged to collect the plasma. The plasma sample was deprotenized and the supernatant was diluted to prepare each of measurement sample solutions. The concentration of the compound of the present invention in each of measurement sample solutions was quantified using LC-MS, and Cmax (maximum concentration in plasma) and AUC (area under the curve for concentration in blood, time 0 to infinite (∞) hours) of the compounds of the present invention were calculated.

Chung model rat = test: Analgesic efficacy test (2): Chung model rat, neuropathic pain model (allodynia, von Frey filament); conditions: Table 13, Wistar male rats, L5 spinal nerve ligation, mean ± standard error
Procedure: An analgesic efficacy test was conducted using a Chung model rat, a neuropathic pain model. Using Wistar male rats after passing 9-week old as an experimental animal, a model rat was prepared in accordance with the method of Kim and Chung (Pain, 50, 355-363, 1992). Specifically, left L5 spinal nerves of rats were exposed under anesthetization with pentobarbital (35 mg/kg, intraperitoneal administration), and firmly ligated with 5-0 silk yarn at L5 dorsal root ganglion peripheral side. The animals were placed in a transparent acrylic cage of which bottom was wire netted The measurement of allodynia was carried out using von Frey filament (manufactured by North Coast Medical Inc.) and a 50% reaction threshold was calculated according to an up-down method, in accordance with methods of Chaplan et al. (J. Neurosci. Method, 53, 55-63, 1994) and Lee et al. (J. Neurophysiol., 81, 2226-2233, 1999). The 50% reaction thresholds were measured twice before injury of the spinal nerve, and those animals of which thresholds were outside the standard were removed from the operation of spinal nerve injury. On or after 14 days from the spinal nerve injury, a 50% reaction threshold was measured, and those showing thresholds of 1 g or more and less than 4 g were used as experimental animal. The group was constituted by 7 rats per group so that an average of a 50% reaction threshold for each group would be nearly even.
A solution or suspension prepared by dissolving or suspending a compound of the present invention in a 0.5% (w/v) aqueous CMC-Na solution was orally administered as a test substance in a single dose while, a 0.5% (w/v) aqueous CMC-Na solution was administered in the same manner to the control group for nerve injury. After 30 minutes from the administration, the measurement of allodynia was carried out, and a 50% reaction threshold (mean±standard error) was calculated. In the test for significance difference, Baltlett's test was carried out in the comparison between multiple groups of the group administered with test substance with the control group for nerve injury. In the case of homoscedasticity, Dunnett's multiple comparison test of parametrics, and in the case of heteroscedasticity, Dunnett's multiple comparison test of non-parametrics were used. In all cases, significance difference was considered to be found at P<0.05.

ddY-type mice = test: Analgesic efficacy test (1): acetic acid writhing test (nociceptive pain model animal); conditions: Mus musculus, 25 min, writhing number, male ddY mice, acetic acid i.p. 25 min after administration, mean ± standard error, read-out: Percent Suppression (%); for inhibition in vivo at 10 mg/kg: oral single dose 10 mg/kg; for inhibition in vivo at 100 mg/kg: oral single dose 100 mg/kg
Description: A compound of the present invention was orally administered to mice, to carry out an analgesic efficacy test according to acetic acid writhing test (nociceptive pain model animal). As an experimental animal, 4-week old male ddY-type mice were previously bred, and thereafter 8 mice per one group were used in the experiment. A solution or suspension prepared by dissolving or suspending a compound of the present invention in a 0.5% (w/v) aqueous CMC-Na solution was orally administered as a test substance in a single dose. While, to a control group, a 0.5% (w/v) aqueous CMC-Na solution was administered in the same manner. After 25 minutes from administration, the mice were intraperitoneally administered with a 0.7% (v/v) acetic acid/physiological saline at the dose of 10 mL/kg. From 5 minutes thereafter, writhing number in a 10-minute period was counted, and a suppressive rate for each individual (mean±standard error) was calculated by the following formula: […]
In the test for significance difference, Baltlett's test was carried out in the comparison between multiple groups of the group administered with test substance with the control group. In the case of homoscedasticity, Dunnett's multiple comparison test of parametrics, and in the case of heteroscedasticity, Dunnett's multiple comparison test of non-parametrics were used. In addition, in the test of dose dependency, Jockheere-Terpstra's test was used. In all cases, significance difference was considered to be found at P<0.05.

| AUC(0-inf) [1] | Cmax [1] | Compound | 50% Reaction Threshold (g), Group Administered with Test Substance, 30 Min. After Administration (Chung model rat; oral single dose 10 mg/kg) | inhibition in vivo at 10 mg/kg (ddY-type mice) | 50% Reaction Threshold (g), Group Administered with Test Substance, 30 Min. After Administration (Chung model rat; oral single dose 1 mg/kg) | inhibition in vivo at 100 mg/kg (ddY-type mice) |
| --- | --- | --- | --- | --- | --- | --- |
| 14600 ng·h/mL | 2300 ng/mL | O=C(C=Cc1ccc(F)cc1)N[C@@H](Cc1c[nH]c2ccccc12)C(=O)O [Compound 5, N^α-[3-(4-Fluorophenyl)acryloyl]-L-tryptophan] | 6.87 ± 1.28 g | 51.3 ± 10.9% |  |  |
|  |  | N#Cc1ccc(C=CC(=O)N[C@@H](Cc2c[nH]c3ccccc23)C(=O)O)cc1 [Compound 19, N^α-[3-(4-Cyanophenyl)acryloyl]-L-tryptophan] |  |  | 5.16 ± 0.41 g | 52.2 ± 6.1% |
|  |  | O=C(C=Cc1cc(C(F)(F)F)cc(C(F)(F)F)c1)N[C@@H](Cc1c[nH]c2ccccc12)C(=O)O [Compound 16, N^α-{3-[3,5-Bis(trifluoromethyl)phenyl]acryloyl}-L-tryptophan] | 8.38 ± 1.07 g |  |  | 69 ± 4.9% |
|  |  | O=C(C=Cc1ccccc1C(F)(F)F)N[C@@H](Cc1c[nH]c2ccccc12)C(=O)O [Compound 10, N^α-[3-(2-Trifluoromethylphenyl)acryloyl]-L-tryptophan] | 6.73 ± 1.26 g | 41.6 ± 9.6% |  |  |
|  |  | O=C(C=Cc1ccccc1O)N[C@@H](Cc1c[nH]c2ccccc12)C(=O)O [Compound 2, N^α-[3-(2-Hydroxyphenyl)acryloyl]-L-tryptophan] | 11.64 ± 1.81 g | 41.8 ± 4.1% |  |  |
| 19400 ng·h/mL | 2800 ng/mL | O=C(C=Cc1cc(F)ccc1F)N[C@@H](Cc1c[nH]c2ccccc12)C(=O)O [Compound 15, N^α-[3-(2,5-Difluorophenyl)acryloyl]-L-tryptophan] | 9.12 ± 1.55 g |  |  | 61.3 ± 9.9% |
|  |  | CSCC[C@H](NC(=O)C=Cc1ccccc1F)C(=O)O [Compound 67, N-[3-(2-Fluorophenyl)acryloyl]-L-methionine] |  | 43.5 ± 6.9% | 4.94 ± 0.61 g |  |
| 21900 ng·h/mL | 5000 ng/mL | O=C(C=Cc1ccccc1)N[C@@H](Cc1c[nH]c2ccccc12)C(=O)O [Compound 8, N^α-(3-Phenylacryloyl)-L-tryptophan] | 8.39 ± 1.30 g | 67.7 ± 10.3% |  |  |
| 46300 ng·h/mL | 7400 ng/mL | O=C(C=Cc1c(F)cccc1F)N[C@@H](Cc1c[nH]c2ccccc12)C(=O)O [Compound 13, N^α-[3-(2,6-Difluorophenyl)acryloyl]-L-tryptophan] | 9.94 ± 1.56 g | 52.9 ± 7.7% |  |  |
| 10200 ng·h/mL | 3000 ng/mL | O=C(N[C@@H](Cc1c[nH]c2ccccc12)C(=O)O)c1cc2ccccc2o1 [Compound 20, N^α-(Benzofuran-2-carbonyl)-L-tryptophan] |  |  | 6.13 ± 0.75 g | 41.6 ± 6% |
| 238000 ng·h/mL | 50600 ng/mL | Cn1cc(C[C@H](NC(=O)C=Cc2ccccc2)C(=O)O)c2ccccc21 [Compound 29, 1-Methyl-N^α-(3-phenylacryloyl)-L-tryptophan] | 6.45 ± 1.39 g | 56.8 ± 6.8% |  |  |
|  |  | N#Cc1ccccc1C=CC(=O)N[C@@H](Cc1c[nH]c2ccccc12)C(=O)O [Compound 9, N^α-[3-(2-Cyanophenyl)acryloyl]-L-tryptophan] |  | 41 ± 12.9% | 6.28 ± 0.42 g |  |
| 10600 ng·h/mL | 1700 ng/mL | COc1ccccc1C=CC(=O)N[C@@H](Cc1c[nH]c2ccccc12)C(=O)O [Compound 11, N^α-[3-(2-Methoxyphenyl)acryloyl]-L-tryptophan] | 10.55 ± 1.50 g |  |  | 60.9 ± 5.9% |
| 28700 ng·h/mL | 4300 ng/mL | O=C(C=Cc1cccc(F)c1)N[C@@H](Cc1c[nH]c2ccccc12)C(=O)O [Compound 4, N^α-[3-(3-Fluorophenyl)acryloyl]-L-tryptophan] | 10.73 ± 1.59 g |  |  | 42.4 ± 8.3% |
| 24200 ng·h/mL | 7100 ng/mL | C=CC(=O)N[C@@H](Cc1c[nH]c2ccccc12)C(=O)O [Compound 1, N^α-Acryloyl-L-tryptophan] | 11.18 ± 1.74 g | 25.7 ± 6.3% |  |  |
|  |  | N=C(N)NCCC[C@H](NC(=O)C=Cc1ccccc1F)C(=O)O [Compound 64, N^α-[3-(2-Fluorophenyl)acryloyl]-L-arginine] |  | 50.6 ± 7.5% | 6.21 ± 1.04 g |  |
| 8500 ng·h/mL | 2800 ng/mL | C=CC(=O)N[C@@H](Cc1ccc(OC)cc1)C(=O)O [Compound 38, N-Acryloyl-O^4-methyl-L-tyrosine] |  |  | 5.44 ± 0.75 g | 52 ± 8.2% |
|  |  | O=C(C=Cc1ccc(Oc2ccccc2)cc1)N[C@@H](Cc1c[nH]c2ccccc12)C(=O)O [Compound 18, N^α-[3-(4-Phenoxyphenyl)acryloyl]-L-tryptophan] | 11.73 ± 1.60 g | 56.5 ± 4.2% |  |  |
|  |  | NC(=O)[C@H](Cc1c[nH]c2ccccc12)NC(=O)C=Cc1ccccc1F [Compound 23, N^α-[3-(2-Fluorophenyl)acryloyl]-L-tryptophanamide] | 9.37 ± 1.56 g |  |  | 48.2 ± 11.5% |
|  |  | N#Cc1cccc(C=CC(=O)N[C@@H](Cc2c[nH]c3ccccc23)C(=O)O)c1 [Compound 17, N^α-[3-(3-Cyanophenyl)acryloyl]-L-tryptophan] | 12.99 ± 1.53 g | 54.7 ± 6.8% |  |  |
|  |  | O=C(N[C@@H](Cc1c[nH]c2ccccc12)C(=O)O)c1cc2ccccc2oc1=O [Compound 21, N^α-(Coumarin-3-carbonyl)-L-tryptophan] |  | 38.3 ± 6.5% | 3.93 ± 0.16 g |  |
|  |  | COc1ccc(C[C@H](NC(=O)C=Cc2ccccc2O)C(=O)O)cc1 [Compound 39, N-[3-(2-Hydroxyphenyl)acryloyl]-O^4-methyl-L-tyrosine] | 11.44 ± 1.70 g |  |  |  |
